Test results published in ChEMBL document CHEMBL1671616, “Bloodstream infections caused by extended-spectrum-beta-lactamase- producing Escherichia coli: risk factors for inadequate initial antimicrobial therapy” (2008).

Key:
Assay type in all cases: functional
Escherichia coli [1] = assay: Antimicrobial activity against ESBL producing Escherichia coli isolated from patient bloodstream assessed as resistant isolate by Etest method
Escherichia coli [2] = assay: Antimicrobial activity against ESBL producing Escherichia coli isolated from patient bloodstream assessed as resistant isolate by Etest method in presence of clavulanic acid
Escherichia coli [3] = assay: Antimicrobial activity against ESBL producing Escherichia coli isolated from patient bloodstream assessed as resistant isolate by Etest method in presence of Tazobactam

`NCC[C@H](O)C(=O)N[C@@H]1C[C@H](N)[C@@H](O[C@H]2O[C@H](CN)[C@@H](O)[C@H](O)[C@H]2O)[C@H](O)[C@H]1O[C@H]1O[C@H](CO)[C@@H](O)[C@H](N)[C@H]1O` [AMIKACIN] showed an Activity (Escherichia coli [1]) of 0%.
`CC1(C)S[C@@H]2[C@H](NC(=O)[C@H](N)c3ccc(O)cc3)C(=O)N2[C@H]1C(=O)O` [AMOXICILLIN] was tested, and the Activity (Escherichia coli [2]) was 30.2%.
With `O=C(O)c1cn(C2CC2)c2cc(N3CCNCC3)c(F)cc2c1=O` [CIPROFLOXACIN] the Activity (Escherichia coli [1]) was 92.2%.
With `C[C@@H](O)[C@H]1C(=O)N2C(C(=O)O)=C(SCCNC=N)C[C@H]12` [IMIPENEM ANHYDROUS] the Activity (Escherichia coli [1]) was 0%.
With `C[C@H]1COc2c(N3CCN(C)CC3)c(F)cc3c(=O)c(C(=O)O)cn1c23.C[C@H]1COc2c(N3CCN(C)CC3)c(F)cc3c(=O)c(C(=O)O)cn1c23.O` [LEVOFLOXACIN] the Activity (Escherichia coli [1]) was 92.2%.
With `C[C@@H](O)[C@H]1C(=O)N2C(C(=O)O)=C(S[C@@H]3CN[C@H](C(=O)N(C)C)C3)[C@H](C)[C@H]12` [MEROPENEM] the Activity (Escherichia coli [1]) was 0%.
`C[C@]1(Cn2ccnn2)[C@H](C(=O)O)N2C(=O)C[C@H]2S1(=O)=O` [TAZOBACTAM] showed an Activity (Escherichia coli [3]) of 15.5%.
Compound GENTAMICIN has an Activity (Escherichia coli [1]) of 33.3%.
